Values of other authors as cited in publication PMC8674134, “Safety and efficacy of avapritinib in advanced systemic mastocytosis: the phase 1 EXPLORER trial” (Nature Medicine, 2021).

How the values were obtained:
KIT D816V = system: KIT D816V; parameters: method as in PMID 16779792, PMID 15166033, PMID 19193436; conditions: cited from earlier work
[1] = system: advanced systemic mastocytosis (AdvSM); parameters: method as in PMID 32392175; conditions: post hoc exploratory analysis of pivotal phase 2 study; cited from earlier work
mast cell leukemia (MCL) = system: mast cell leukemia (MCL); parameters: method as in PMID 27355533; conditions: patients with MCL; 95% CI, 6–54%; cited from earlier work

| SMILES | Activity against KIT D816V (KIT D816V) | CR rate by IWG-MRT-ECNM criteria [1] | Responses by IWG-MRT-ECNM criteria, patients [1] | 24-month OS (mast cell leukemia (MCL)) |
| --- | --- | --- | --- | --- |
| Cc1ccc(NC(=O)c2ccc(CN3CCN(C)CC3)cc2)cc1Nc1nccc(-c2cccnc2)n1 [Imatinib] | lacks activity |  |  |  |
| CO[C@@H]1[C@H](N(C)C(=O)c2ccccc2)C[C@H]2O[C@]1(C)n1c3ccccc3c3c4c(c5c6ccccc6n2c5c31)C(=O)NC4 [midostaurin] |  | 2% | 28% | 26% |
